Molecules are shown by their SMILES. Read-outs that look alike come from different tables or passages of the source.

This note sets out measurements from US7932261B2, “Macrocycle derivatives useful as inhibitors of β-secretase (BACE)” (Janssen Pharmaceutica NV, priority 2006, dated 2011).

Holding throughout (assay type): biochemical
Assay [1] has as its target T1, β-secretase (BACE) (Homo sapiens, UniProt P56817).
T1 construct: purchased Panvera
The assay is described as follows: in vitro BACE FS1 % Inhibition Assay (Example 13). Particulars: FS1 substrate, pH 5; for % Inhibition (Example 13) @ 0.3 μM / inhibition at 0.3 µM: 0.3 μM compound; for % Inhibition (Example 13) @ 1 μM / inhibition at 1 µM: 1 μM compound; for % Inhibition (Example 13) @ 3 μM / inhibition at 3 µM: 3 μM compound; for inhibition at 0.3 µM: read-out: % Inhibition (Example 13) @ 0.3 μM; for inhibition at 1 µM: read-out: % Inhibition (Example 13) @ 1 μM; for inhibition at 3 µM: read-out: % Inhibition (Example 13) @ 3 μM. The procedure: (§1) The following assay buffers were prepared and used in this assay: (1) enzyme assay buffer (0.05 M sodium acetate, pH5, 0.1% PEG8000 (w/v)), (2) substrate assay buffer (0.05 M sodium acetate, pH5), and (3) compound vehicle (30% DMSO in 50 mM HEPES, pH 7.4).
The FS1-substrate stock solution was prepared in DMSO as a 10 mg/mL solution. The FS1-substrate working solution was prepared by diluting the 10 mg/mL stock solution with substrate assay buffer to a final concentration of 300 μg/mL. The α-secretase (BACE) working solution was prepared by diluting a 0.83 mg/mL BACE stock solution with enzyme assay buffer to a final concentration of 4 μg/mL.
Test compounds were dissolved in DMSO to 10 mM.
The screening procedure for this assay was as follows: 15 μL of BACE working solution was pipetted into each well of a 96-well plate. To each well was then pipetted 2 μL of test compound at the selected concentration. Test compound and BACE were then mixed with a pipettor and incubated for 20 min at room temperature. To each well was then added 10 µL of the FS1 substrate working solution. The plates were then incubated for 1 hour at room temperature.
The procedure for the blank (negative control) was as follows. 15 μL of assay buffer was pipetted into each well to be used as a blank control. To each well was then added 2 μL of vehicle and 10 μL of FS1-substrate working solution. The plates were then incubated for 1 hour at room temperature.
The procedure for the positive control was as follows: 15 μL of BACE working solution was pipetted into each well to be used as a positive control. To each well was then pipetted 2 μL of vehicle. Vehicle and BACE were then mixed with a pipettor and incubated for 20 min at room temperature. To each well was then added 10 μL of the FS1 substrate working solution. The plates were then incubated for 1 hour at room temperature.
For test compounds, % inhibition was determined at each concentration as follows: […]

Assay [2] has as its target T1, β-secretase (BACE). The assay is described as follows: in vitro BACE Assay, Ki (Example 14). Here is the method: as §1
The FS1-substrate stock solution was prepared in DMSO as a 10 mg/mL solution. The FS1-substrate working solution was prepared by diluting the 10 mg/mL stock solution with substrate assay buffer to a final concentration of 300 μg/mL. The β-secretase (BACE) working solution was prepared by diluting a 0.83 mg/mL BACE stock solution with enzyme assay buffer to a final concentration of 4 μg/mL.
Test compounds were dissolved in DMSO at 10 mM.
The procedure for this assay was as follows: 15 μL of BACE working solution was pipetted into each well of a 96-well plate. To each well was then pipetted 2 μL of test compound at the selected concentration. Test compound and BACE were then mixed with a pipettor and incubated for 20 min at room temperature. To each well was then added 10 μL of the FS1 substrate working solution.
The procedure for the positive control was as follows: 15 μL of BACE working solution was pipetted into each well to be used as a positive control. To each well was then pipetted 2 μL of vehicle. Vehicle and BACE were then mixed with a pipettor and incubated for 20 min at room temperature. To each well was then added 10 μL of the FS1 substrate working solution.
For test compounds, Ki inhibition was determined as follows: For each compound concentration and positive control, rate of cleavage of substrate (Vi, where i=compound concentration in μM) was determined as Δ Fluorescence/Δ time (min). Cleavage rates (Vi) were plotted as a function of inhibitor concentration in μM [I]. The Ki was then determined by fitting the following equation to the graph of [I] vs. Vi Y=aVmax/(50+24*(1+X/Ki)),

The target in another assay is human BACE-1 (Homo sapiens, UniProt P56817). Nature of the assay: in vitro BACE Assay run by CEREP (Example 15). The note with it: for inhibition at 0.3 µM / % Inhibition 0.3 μM: 0.3 μM compound; for inhibition at 1 µM: 1 μM compound. Here is the method:
More specifically the assay, run at 50 μL in a 96 well plate, evaluated the effect of test compound on the activity of the human BACE-1 quantified by measuring the formation of Mca-S-E-V—N-L-NH2 from Mca-S-E-V—N-L-D-A-E-F—R—K(Dnp)-R—R—NH2, using a recombinant enzyme.
The test compound, reference compound or water (control) was added to a buffer containing 0.09 M sodium acetate (pH 4.5) and 0.25 μg BACE-1. Compound interference with the fluorimetric detection method due to autofluorescence was then checked by measurements at the wavelengths defined to evaluate the enzyme activity. […] For control basal measurement, the substrate was omitted from the reaction mixture. […] The standard inhibitory reference compound was OM99-2, which was tested in each experiment at several concentrations to obtain an inhibition curve from which its IC50 value was calculated.

Setting [3] is: recombinant enzyme, pH 4.5, 60 min at 37° C.
[4] abbreviates: recombinant enzyme, pH 4.5, 60 min at 37° C., read-out: IC50.

T1 sequence (P56817 46-501): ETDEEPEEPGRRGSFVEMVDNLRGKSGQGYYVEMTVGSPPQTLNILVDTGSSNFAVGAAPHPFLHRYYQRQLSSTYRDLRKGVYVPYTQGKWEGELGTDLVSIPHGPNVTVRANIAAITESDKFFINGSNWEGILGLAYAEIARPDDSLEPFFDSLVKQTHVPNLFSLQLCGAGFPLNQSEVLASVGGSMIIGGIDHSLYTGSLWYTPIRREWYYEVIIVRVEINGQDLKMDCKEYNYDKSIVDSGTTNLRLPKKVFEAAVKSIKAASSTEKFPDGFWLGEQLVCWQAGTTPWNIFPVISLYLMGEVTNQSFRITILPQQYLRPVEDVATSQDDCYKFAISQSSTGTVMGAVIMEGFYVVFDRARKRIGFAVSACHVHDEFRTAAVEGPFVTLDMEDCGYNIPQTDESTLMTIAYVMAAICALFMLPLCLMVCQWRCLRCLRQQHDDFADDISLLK
human BACE-1, sequence (P56817 46-501): as above

With `CC(C)[C@@H]1CC(=O)N(C2CCCCC2)CCCc2cccc(c2)Oc2ccc3c(c2)CN1C(N)=N3` [Compound 3], on β-secretase (BACE) [1], the “% Inhibition (Example 13) @ 0.3 μM” value was 9%, the “% Inhibition (Example 13) @ 1 μM” value is 7% and the “% Inhibition (Example 13) @ 3 μM” value is given as 29%.
In the case of `NC1=Nc2ccc3cc2CN1CCCCC(=O)N(C1CCCCC1)CCCc1cccc(c1)O3` [Compound 4], on β-secretase (BACE) [1], the inhibition at 0.3 µM worked out at 100%, the inhibition at 1 µM worked out at 115% and the inhibition at 3 µM is 120%. Besides, at β-secretase (BACE) [2], the Ki worked out at 44 nM.
In the case of `CC(C)[C@H]1CC(=O)N(C2CCCCC2)CCCc2cccc(c2)Oc2ccc3c(c2)CN1C(N)=N3` [Compound 5], at β-secretase (BACE) [1], the “% Inhibition (Example 13) @ 0.3 μM” value worked out at 3%, the “% Inhibition (Example 13) @ 1 μM” value was −6% and the “% Inhibition (Example 13) @ 3 μM” value came out at 43%.
For `NC1=Nc2ccc3cc2CN1CCCNC(=O)CCc1cccc(c1)O3` [Compound 7], the “% Inhibition (Example 13) @ 0.3 μM” value on β-secretase (BACE) [1] (0.3 µM) was 39%. Besides, at β-secretase (BACE) [1] (1 µM), the “% Inhibition (Example 13) @ 1 μM” value came to 36%. Besides, the “% Inhibition (Example 13) @ 3 μM” value at β-secretase (BACE) [1] (3 µM) was 37%.
On the same counts, the results for `NC1=Nc2ccc3cc2CN1CCCNC(=O)CCc1cccc(c1)O3` [Compound 9] are −26%, −21% and 1%.
With `NC1=Nc2ccc3cc2CN1CCN(C(=O)C1CCCCC1)CCCc1cccc(c1)O3` [Compound 10], on β-secretase (BACE) [1], the “% Inhibition (Example 13) @ 0.3 μM” value was −9%, the “% Inhibition (Example 13) @ 1 μM” value is given as 5% and the “% Inhibition (Example 13) @ 3 μM” value worked out at 7%.
For the compound `NC1=Nc2ccc3cc2CN1CCNC(=O)CCC/C=C/c1ccccc1-3` [Compound 11], at β-secretase (BACE) [1], the inhibition at 0.3 µM was -12%, the inhibition at 1 µM worked out at 23% and the inhibition at 3 µM amounted to 65%.
As to `NC1=Nc2ccc3cc2CN1CCCNC(=O)Cc1cccc(c1)O3` [Compound 12], at β-secretase (BACE) [1], the “% Inhibition (Example 13) @ 0.3 μM” value was −18%, the “% Inhibition (Example 13) @ 1 μM” value is on record as −0.4% and the “% Inhibition (Example 13) @ 3 μM” value is listed as 11%.
`NC1=Nc2ccc3cc2CN1CCN(C1CCCCC1)C(=O)CCc1cccc(c1)O3` [Compound 15]: on β-secretase (BACE) [1], the “% Inhibition (Example 13) @ 0.3 μM” value is −36%, the “% Inhibition (Example 13) @ 1 μM” value was −31% and the “% Inhibition (Example 13) @ 3 μM” value came out at 10%.
For `NC1=Nc2ccc3cc2CN1[C@@H](C1CCCCC1)CNC(=O)CCc1cccc(c1)O3` [Compound 16], in that order: 39%, 37% and 61%.
In the case of `NC1=Nc2cc(F)c3cc2CN1[C@H](C1CCCCC1)CCC(=O)N(C1CCCCC1)CCc1cccc(c1)O3` [Compound 17], on β-secretase (BACE) [1], the inhibition at 0.3 µM worked out at 139%, the inhibition at 1 µM was determined as 145% and the inhibition at 3 µM was 151%. In addition, on β-secretase (BACE) [2], the affinity, expressed as Ki, was 7.6 nM.
On to `COc1cc2c3cc1Oc1cccc(c1)CCN(C1CCCCC1)C(=O)CC[C@@H](C1CCCCC1)N(C3)C(N)=N2` [Compound 18], for which, at β-secretase (BACE) [1], the inhibition at 0.3 µM came out at 95%, the inhibition at 1 µM was found to be 107% and the inhibition at 3 µM is 115%.
On to `NC1=Nc2ccc3cc2CN1[C@@H](C1CCCCC1)CCCN(C1CCCCC1)CCCc1cccc(c1)O3` [Compound 19], for which, at β-secretase (BACE) [1], the inhibition at 0.3 µM was determined as 35%, the inhibition at 1 µM was 55% and the inhibition at 3 µM is 93%. At β-secretase (BACE) [2], this compound returned a Ki of 400 nM.
In the case of `CC(C)[C@@H]1CCC(=O)N(C2CCOCC2)CCc2cccc(c2)Oc2ccc3c(c2)CN1C(N)=N3` [Compound 20], at β-secretase (BACE) [2] (read-out: (Example 14) Ki, FS1 substrate 50 μM, Km 24 μM, pH 5), the Ki was 22 nM.
`CC(C)C1CCC(=O)N(C2CCC(O)CC2)CCc2cccc(c2)Oc2ccc3c(c2)CN1C(N)=N3` (centres unmarked) [Compound 26]: at β-secretase (BACE) [1], the “% Inhibition (Example 13) @ 0.3 μM” value is −8%, the “% Inhibition (Example 13) @ 1 μM” value amounted to 23% and the “% Inhibition (Example 13) @ 3 μM” value came to 58%.
On the same counts, the results for `CCOC(=O)C1CCC(N2CCc3cccc(c3)Oc3ccc4c(c3)CN(C(N)=N4)[C@H](C(C)C)CCC2=O)CC1` (some centres unmarked) [Compound 28] are 4%, 59% and 110%.
In the case of `NC1=Nc2ccc3cc2CN1[C@H](C1CCCCC1)CCC(=O)N([C@H]1CC[C@@H](C(=O)O)CC1)CCc1cccc(c1)O3` [Compound 29], at β-secretase (BACE) [1], the inhibition at 0.3 µM worked out at 120%, the inhibition at 1 µM amounted to 116% and the inhibition at 3 µM turned out to be 125%.
For the compound `CC(C)[C@@H]1CCC(=O)Nc2ccc3ccc(cc3c2)Oc2ccc3c(c2)CN1C(N)=N3` [Compound 31], on β-secretase (BACE) [1], the “% Inhibition (Example 13) @ 0.3 μM” value stood at 14%, the “% Inhibition (Example 13) @ 1 μM” value came out at 16% and the “% Inhibition (Example 13) @ 3 μM” value is −15%.
Regarding `NC1=Nc2cnc3cc2CN1[C@H](C1CCCCC1)CCC(=O)N(C1CCCCC1)CCc1cccc(c1)O3` [Compound 32], the IC50 at human BACE-1 was 55 nM. Besides, the inhibition at 0.3 µM at human BACE-1 (setting [3]) is 99%.
With `NC1=Nc2cnc3cc2CN1C(C1CCCCC1)CCC(=O)N(C1CCC(C(=O)O)CC1)CCc1cccc(c1)O3` (centres unmarked) [Compound 33], on human BACE-1 (setting [3]), the “% Inhibition 0.3 μM” value worked out at 15%.
On to `NC1=Nc2cnc3cc2CN1[C@H](C1CCCCC1)CCC(=O)N([C@H]1CC[C@@H](O)CC1)CCc1cccc(c1)O3` [Compound 34], for which, at human BACE-1 (setting [3]), the inhibition at 0.3 µM turned out to be 86%. For the same compound, the IC50 at human BACE-1 (setting [4]) is 210 nM.
`NC1=Nc2ccc3cc2CN1[C@H](C1CCCCC1)CCC(=O)N([C@H]1CC[C@@H](O)CC1)CCc1cccc(c1)O3` [Compound 35]: on human BACE-1 (setting [3]), the inhibition at 0.3 µM was 93%. At human BACE-1 (setting [4]), the IC50 was 83 nM.
Consider `CC(C)[C@@H]1CCC(=O)N(C2CCCCC2)C2CCc3ccc(cc32)Oc2ccc3c(c2)CN1C(N)=N3` (some centres unmarked) [Compound 36], for which, at human BACE-1 (setting [3]), the “% Inhibition 0.3 μM” value came out at 74%. Besides, at human BACE-1 (setting [4]), the IC50 was found to be 150 nM.
`NC1=Nc2cnc3cc2CN1[C@H](C1CCCCC1)CCC(=O)N(C1CCCC1)CCc1cccc(c1)O3` [Compound 37]: the inhibition at 0.3 µM at human BACE-1 (setting [3]) came to 100%. In addition, the IC50 on human BACE-1 (setting [4]) turned out to be 70 nM.
For the compound `NC1=Nc2cnc3cc2CN1[C@H](C1CCCCC1)CCC(=O)N(CC1CC1)CCc1cccc(c1)O3` [Compound 38], the inhibition at 0.3 µM on human BACE-1 (setting [3]) was 97%. For the same compound, the IC50 on human BACE-1 (setting [4]) was 67 nM.
Regarding `Nc1nc2ccc3cc2cc1C(C1CCCCC1)C/C=C/C(=O)N(C1CCCCC1)CCc1cccc(c1)O3` (centres unmarked) [Compound 39], the inhibition at 1 µM at human BACE-1 (setting [3]) was 53%. Moreover, the IC50 on human BACE-1 (setting [4]) amounted to 810 nM.
`Nc1nc2ccc3cc2cc1C(C1CCCCC1)CCCC(=O)N(C1CCCCC1)CCc1cccc(c1)O3` (centres unmarked) [Compound 40]: the inhibition at 1 µM at human BACE-1 (setting [3]) was determined as 13%.
